Source: patent US20160046618A1, “Cyclopropyl Fused Thiazin-2-Amine Compounds as Beta-Secretase Inhibitors and Methods of Use” (AMGEN INC., priority 2014, published 2016)
Like-named read-outs stand apart in the source and are kept apart here.

Columns and labels:
human recombinant BACE2 = human recombinant BACE2 (Homo sapiens (Human), UniProt Q9Y5Z0); experiment: In vitro enzymatic BACE2 FRET assay; format: biochemical; settings: read-out: IC50 IP (μM) BACE2 enzyme
Procedure, shortened: (§1)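 Ni-NTA-purified recombinant enzyme incubated 1 h with 50 nM FRET peptide substrate (fluorophore and quencher flanking the BACE cleavage site). Reaction stopped with Tris buffer raising pH to neutrality; cleavage-released fluorescence read at ex 488/em 590 nm.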

Recombinant Cat D = Recombinant Cat D (Homo sapiens (Human), UniProt P07339); experiment: In vitro enzymatic Cathepsin D (Cat D) FRET assay; format: biochemical; settings: read-out: IC50 IP (μM) CatD
Recombinant Cat D, sequence (P07339 65-412): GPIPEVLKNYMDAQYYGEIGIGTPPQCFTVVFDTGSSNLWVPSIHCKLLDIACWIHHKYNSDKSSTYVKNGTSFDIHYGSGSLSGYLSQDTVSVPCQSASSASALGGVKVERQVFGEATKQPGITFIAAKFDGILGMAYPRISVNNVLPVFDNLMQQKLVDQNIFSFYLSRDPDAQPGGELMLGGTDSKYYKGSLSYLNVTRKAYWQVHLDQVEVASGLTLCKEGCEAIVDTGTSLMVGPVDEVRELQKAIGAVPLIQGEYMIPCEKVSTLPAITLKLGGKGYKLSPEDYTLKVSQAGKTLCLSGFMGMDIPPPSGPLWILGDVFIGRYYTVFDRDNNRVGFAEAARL
Procedure, shortened: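 Human Cat D expressed in CHO cells was incubated for one hour in 0.05 M citrate pH 3.5, 5 mM CHAPS, 10% DMSO final, with 20 nM quenched FRET peptide substrate. Reactions were stopped with Tris buffer raising pH to neutrality. Cleavage was read as fluorescence at excitation 500 nm, emission 580 nm.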

[1] = system: Aβ40 in conditioned medium of cells stably expressing Amyloid Precursor Protein (APP); experiment: In vitro BACE-1 cell-based assay (Aβ40 sandwich ELISA); settings: read-out: IC50 IP (μM) BACE1 cell
Procedure, shortened: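 APP-stable cells, pre-cultured 24 h at 37° C in DMEM/10% FBS, were treated 24 h with compound in a 10-point series starting at 100 μM or 10 μM (0.1% DMSO final). Secreted Aβ40 in conditioned medium was measured by pAb40/biotin-6E10 sandwich ELISA with Europium time-resolved fluorescence; IC50 from percent inhibition versus concentration.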

human recombinant BACE1 = human recombinant BACE1 (Homo sapiens (Human), UniProt P56817); experiment: In vitro enzymatic BACE1 FRET assay; format: biochemical; settings: read-out: IC50 IP (μM) BACE1 enzyme
human recombinant BACE1, sequence (P56817 46-501): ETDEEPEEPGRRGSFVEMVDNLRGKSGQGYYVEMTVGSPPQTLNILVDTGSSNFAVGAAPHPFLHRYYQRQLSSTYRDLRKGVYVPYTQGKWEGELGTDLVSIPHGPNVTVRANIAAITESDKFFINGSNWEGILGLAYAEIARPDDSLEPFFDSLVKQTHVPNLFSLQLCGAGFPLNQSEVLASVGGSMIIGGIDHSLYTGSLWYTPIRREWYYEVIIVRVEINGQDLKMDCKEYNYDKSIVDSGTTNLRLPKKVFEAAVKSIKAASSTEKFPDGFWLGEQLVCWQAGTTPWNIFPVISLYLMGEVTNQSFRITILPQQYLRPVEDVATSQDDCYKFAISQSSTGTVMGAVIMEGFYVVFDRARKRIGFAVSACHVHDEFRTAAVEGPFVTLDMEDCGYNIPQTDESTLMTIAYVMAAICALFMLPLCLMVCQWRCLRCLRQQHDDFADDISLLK
Procedure, shortened: as §1

human recombinant BACE2, sequence (Q9Y5Z0 63-518): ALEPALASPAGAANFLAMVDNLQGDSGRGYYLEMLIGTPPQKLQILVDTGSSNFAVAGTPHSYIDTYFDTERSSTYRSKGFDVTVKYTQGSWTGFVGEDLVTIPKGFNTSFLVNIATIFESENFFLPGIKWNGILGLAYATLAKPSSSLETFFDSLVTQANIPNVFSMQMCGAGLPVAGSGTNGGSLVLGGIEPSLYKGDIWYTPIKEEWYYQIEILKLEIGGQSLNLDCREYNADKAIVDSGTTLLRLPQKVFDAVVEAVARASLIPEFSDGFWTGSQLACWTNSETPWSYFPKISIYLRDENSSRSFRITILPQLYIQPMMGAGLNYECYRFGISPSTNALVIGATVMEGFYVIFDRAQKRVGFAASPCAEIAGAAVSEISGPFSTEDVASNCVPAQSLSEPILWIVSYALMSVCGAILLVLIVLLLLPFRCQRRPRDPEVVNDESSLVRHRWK

SMILES	IC50 (human recombinant BACE2; BACE2 FRET enzyme assay) [µM]	IC50 (Recombinant Cat D; Cathepsin D FRET enzyme assay) [µM]	IC50 ([1]; BACE1 cell-based assay) [µM]	IC50 (human recombinant BACE1; BACE1 FRET enzyme assay) [µM]	IC50 (human recombinant BACE2) [µM]	IC50 (Recombinant Cat D) [µM]	IC50 [1] [µM]	IC50 (human recombinant BACE1) [µM]
C[C@]1(c2cc(Nc3nccc4cc(C#N)cnc34)cc(F)c2F)N=C(N)S[C@@]2(CF)C[C@H]21 [Example 60, 8-((3-((1S,5S,6S)-3-amino-1-(fluoromethyl)-5-methyl-2-thia-4-azabicyclo[4.1.0]hept-3-en-5-yl)-4,5-difluorophenyl)amino)-1,7-naphthyridine-3-carbonitrile]	0.00174	204	0.00767	0.00135				
C#CCOc1cnc2c(Nc3cnc(F)c([C@@]4(C)N=C(N)S[C@@]5(CO)C[C@H]54)c3)ncnc2c1 [Example 670, ((1S,5S,6S)-3-amino-5-(2-fluoro-5-((7-(2-propyn-1-yloxy)pyrido[3,2-d]pyrimidin-4-yl)amino)-3-pyridinyl)-5-methyl-2-thia-4-azabicyclo[4.1.0]hept-3-en-1-yl)methanol]					0.17	730	0.000969	0.0024
C[C@]1(c2cc(NC(=O)c3cnc(OCC(F)(F)F)cn3)ccc2F)N=C(N)S[C@@]2(C(=O)N3CCOCC3)C[C@H]21 [Example 998, N-(3-((1S,5S,6S)-3-amino-5-methyl-1-(morpholine-4-carbonyl)-2-thia-4-azabicyclo[4.1.0]hept-3-en-5-yl)-4-fluorophenyl)-5-(2,2,2-trifluoroethoxy)pyrazine-2-carboxamide]					0.0754	> 400	0.0017	0.000146
Cc1noc(COc2cnc3c(Nc4cc(F)c(F)c([C@@]5(C)N=C(N)S[C@@]6(C(F)F)C[C@@H]56)c4)nccc3n2)n1 [Example 887, N-(3-((1S,5S,6S)-3-amino-1-(difluoromethyl)-5-methyl-2-thia-4-azabicyclo[4.1.0]hept-3-en-5-yl)-4,5-difluorophenyl)-2-((3-methyl-1,2,4-oxadiazol-5-yl)methoxy)pyrido[3,4-b]pyrazin-5-amine]					0.317	> 400	0.0442	0.00295
COC[C@]12C[C@H]1[C@@](C)(c1cc(NC(=O)c3cnc(OCC(F)F)cn3)ccc1F)N=C(N)S2 [Example 1057, N-(3-((1S,5S,6S)-3-amino-1-(methoxymethyl)-5-methyl-2-thia-4-azabicyclo[4.1.0]hept-3-en-5-yl)-4-fluorophenyl)-5-(2,2-difluoroethoxy)-2-pyrazinecarboxamide]					0.158	> 400	0.0033	0.0023
C#CCOc1cnc2c(Nc3cc(F)c(F)c([C@@]4(C)N=C(N)S[C@H]5C[C@H]54)c3)nccc2c1 [Example 32, N-(3-((1S,5S,6S)-3-amino-5-methyl-2-thia-4-azabicyclo[4.1.0]hept-3-en-5-yl)-4,5-difluorophenyl)-3-(2-propyn-1-yloxy)-1,7-naphthyridin-8-amine]	0.304	138	0.0836	0.0212				
Cc1nc(OCc2ncco2)cnc1C(=O)Nc1ccc(F)c([C@@]2(C)N=C(N)S[C@@]3(C(F)F)C[C@@H]23)c1 [Example 836, N-(3-((1S,5S,6S)-3-amino-1-(difluoromethyl)-5-methyl-2-thia-4-azabicyclo[4.1.0]hept-3-en-5-yl)-4-fluorophenyl)-3-methyl-5-(1,3-oxazol-2-ylmethoxy)-2-pyrazinecarboxamide]					0.0362	> 400	0.00389	0.00209
COc1cnc2c(Nc3cc(F)c(F)c([C@@]4(CF)N=C(N)S[C@H]5C[C@H]54)c3)ncnc2c1 [Example 66, N-(3-((1S,5S,6S)-3-amino-5-(fluoromethyl)-2-thia-4-azabicyclo[4.1.0]hept-3-en-5-yl)-4,5-difluorophenyl)-7-methoxypyrido[3,2-d]pyrimidin-4-amine]	0.132	> 400	0.0525	0.0171				
Cc1nc(OCC(F)(F)F)cnc1C(=O)Nc1ccc(F)c([C@@]2(CF)N=C(N)S[C@@]3(CO)C[C@H]32)c1 [Example 79, N-(3-((1S,5S,6S)-3-amino-5-(fluoromethyl)-1-(hydroxymethyl)-2-thia-4-azabicyclo[4.1.0]hept-3-en-5-yl)-4-fluorophenyl)-3-methyl-5-(2,2,2-trifluoroethoxy)-2-pyrazinecarboxamide]	0.143	> 400	0.0284	0.00489				
C#CCOc1cnc(C(=O)Nc2ccc(F)c([C@@]3(CF)N=C(N)S[C@@]4(COCC(F)(F)F)C[C@H]43)c2)cn1 [Example 953, N-(3-((1S,5S,6S)-3-amino-5-(fluoromethyl)-1-((2,2,2-trifluoroethoxy)methyl)-2-thia-4-azabicyclo[4.1.0]hept-3-en-5-yl)-4-fluorophenyl)-5-(2-propyn-1-yloxy)-2-pyrazinecarboxamide]					0.0267	61.9	0.00149	0.00028
Cc1cc(NC(=O)c2cnc(OCC(F)(F)F)cn2)cc([C@@]2(C)N=C(N)S[C@@]3(C(F)F)C[C@@H]23)c1F [Example 1073, N-(3-((1S,5S,6S)-3-amino-1-(difluoromethyl)-5-methyl-2-thia-4-azabicyclo[4.1.0]hept-3-en-5-yl)-4-fluoro-5-methylphenyl)-5-(2,2,2-trifluoroethoxy)pyrazine-2-carboxamide]					0.0515	1300	0.00323	0.000842

Now from value to compound:

IC50 (human recombinant BACE2; BACE2 FRET enzyme assay) [µM]	IC50 (Recombinant Cat D; Cathepsin D FRET enzyme assay) [µM]	IC50 ([1]; BACE1 cell-based assay) [µM]	IC50 (human recombinant BACE1; BACE1 FRET enzyme assay) [µM]	IC50 (human recombinant BACE2) [µM]	IC50 (Recombinant Cat D) [µM]	IC50 [1] [µM]	IC50 (human recombinant BACE1) [µM]	SMILES
				0.00547	74.9	0.00528	0.000443	C#CCOc1cnc2c(Nc3cc(F)c(F)c([C@@]4(C)N=C(N)S[C@@]5(S(C)(=O)=O)C[C@H]54)c3)nccc2n1 [Example 630, N-(3-((1R,5S,6S)-3-amino-5-methyl-1-(methylsulfonyl)-2-thia-4-azabicyclo[4.1.0]hept-3-en-5-yl)-4,5-difluorophenyl)-2-(2-propyn-1-yloxy)pyrido[3,4-b]pyrazin-5-amine]
				0.00936	835	0.0259	0.000528	C#CCOc1ccc(C(=O)Nc2ccc(F)c([C@@]3(CF)N=C(N)S[C@@]4(c5ocnc5C)C[C@@H]34)c2)nc1 [Example 789, N-(3-((1S,5S,6S)-3-amino-5-(fluoromethyl)-1-(4-methyl-1,3-oxazol-5-yl)-2-thia-4-azabicyclo[4.1.0]hept-3-en-5-yl)-4-fluorophenyl)-5-(2-propyn-1-yloxy)-2-pyridinecarboxamide]
				0.0249	> 400	0.00392	0.00305	COC[C@]12C[C@H]1[C@@](C)(c1cc(NC(=O)c3ncc(OCc4ncco4)nc3C)ccc1F)N=C(N)S2 [Example 835, N-(3-((1S,5S,6S)-3-amino-1-(methoxymethyl)-5-methyl-2-thia-4-azabicyclo[4.1.0]hept-3-en-5-yl)-4-fluorophenyl)-3-methyl-5-(1,3-oxazol-2-ylmethoxy)-2-pyrazinecarboxamide]
				0.0199	21	0.104	0.01	NC1=N[C@](CF)(c2cc(NC(=O)c3ccc(Cl)cn3)ccc2F)[C@H]2C3CSC[C@@]32S1 (stereo partly drawn) [Example 962, N-(3-((4S,4aR,7aS)-2-amino-4-(fluoromethyl)-4a,4b,5,7-tetrahydro-4H-thieno[3′,4′:2,3]cyclopropa[1,2-e][1,3]thiazin-4-yl)-4-fluorophenyl)-5-chloropicolinamide]
				0.00332	> 400	0.0239	0.0072	COC[C@]12C[C@H]1[C@@](CF)(c1cc(Nc3nccc4cc(C#N)cnc34)ccc1F)N=C(N)S2 [Example 717, 8-((3-((1S,5S,6S)-3-amino-5-(fluoromethyl)-1-(methoxymethyl)-2-thia-4-azabicyclo[4.1.0]hept-3-en-5-yl)-4-fluorophenyl)amino)-1,7-naphthyridine-3-carbonitrile]
				< 0.00203	1230	0.0139	0.000847	Cc1ncoc1[C@]12C[C@H]1[C@@](CF)(c1cc(NC(=O)c3ccc(Cl)cn3)ccc1F)N=C(N)S2 [Example 787, N-(3-((1S,5S,6S)-3-amino-5-(fluoromethyl)-1-(4-methyl-1,3-oxazol-5-yl)-2-thia-4-azabicyclo[4.1.0]hept-3-en-5-yl)-4-fluorophenyl)-5-chloro-2-pyridinecarboxamide]
				0.00268	673	0.111	0.00454	COC(=O)[C@]12C[C@H]1[C@@](C)(c1cc(NC(=O)c3ccc(Cl)cn3)cc(F)c1F)N=C(N)S2 [Example 898, (1S,5S,6S)-methyl 3-amino-5-(5-(5-chloropicolinamido)-2,3-difluorophenyl)-5-methyl-2-thia-4-azabicyclo[4.1.0]hept-3-ene-1-carboxylate]
				0.0255	360	0.00812	0.00801	C[C@@H](O)[C@]12C[C@H]1[C@@](C)(c1cc(Nc3ncnc4cc(C#N)cnc34)cc(F)c1F)N=C(N)S2 [Example 908]
